The source of these data is patent US20080038728A1, “Quadruple Transformed Cell Line Useful for the Identification of Transport Inhibitors” (priority 2004, published 2008).

Series [1] has as its target T1, ABCC2 (Homo sapiens, UniProt Q92887). As to conditions: MDCK. As to the method:
ATP-dependent transport into inside-out membrane vesicles prepared from MDCKII-ABCC2 single-transfectants (ABCC2, closed circles) or vector-transfected MDCKII cells (Control, open circles) was measured for 1, 3, and 5 min as described in Example 1. Data are means ±SD determined from 3 measurements.
Transport of estrone 3-sulfate into inside-out membrane vesicles was performed using nick spin columns as described (Keppler et al., 1998). Membrane vesicles were prepared from MDCKII vector-transfected control cells and MDCKII-ABCC2 single transfected cells described by Cui et al. (1999) and Letschert et al. (2005). ATP-dependent transport was determined by subtracting values obtained in the presence of 5′-AMP from those in the presence of ATP.

In the next series the target is T2, OATP1B3 (Homo sapiens, UniProt Q9NPD5).
T2 sequence (Q9NPD5 1-702): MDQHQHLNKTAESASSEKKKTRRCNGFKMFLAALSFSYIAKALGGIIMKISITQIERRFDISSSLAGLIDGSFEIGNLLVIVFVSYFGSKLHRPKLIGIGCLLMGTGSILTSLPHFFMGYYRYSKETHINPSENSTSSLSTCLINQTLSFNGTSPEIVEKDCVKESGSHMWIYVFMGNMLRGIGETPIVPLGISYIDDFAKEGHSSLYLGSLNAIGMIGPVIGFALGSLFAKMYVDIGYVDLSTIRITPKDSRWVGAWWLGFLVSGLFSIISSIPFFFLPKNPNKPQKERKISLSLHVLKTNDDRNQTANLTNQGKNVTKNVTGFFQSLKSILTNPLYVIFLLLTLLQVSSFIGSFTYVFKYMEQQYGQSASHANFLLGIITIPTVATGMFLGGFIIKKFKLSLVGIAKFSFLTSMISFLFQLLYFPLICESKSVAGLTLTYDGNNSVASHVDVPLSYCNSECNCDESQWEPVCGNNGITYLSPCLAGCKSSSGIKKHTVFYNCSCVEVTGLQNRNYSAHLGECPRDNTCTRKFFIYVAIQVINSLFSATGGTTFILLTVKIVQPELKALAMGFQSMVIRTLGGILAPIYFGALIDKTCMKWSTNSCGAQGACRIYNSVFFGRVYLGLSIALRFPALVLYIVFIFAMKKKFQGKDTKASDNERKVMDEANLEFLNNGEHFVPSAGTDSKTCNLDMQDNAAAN
Put plainly: Uptake (intracellular accumulation) kinetics in ABCC2/OATP1B3 double-transfected MDCKII cells. It counts as in vitro ADME. On the set-up: expressed in transfected cells; host or cells: MDCKII (canine kidney), co-expressing ABCC2. As to conditions: cell line ABCC2-OATP1B3, intracellular accumulation of 3H-labeled substrate. As to the method:
(§1) (a) MDCKII cells were grown on ThinCerts (24-mm diameter, pore size 0.4 μm, pore density 1×10^8 per cm^2) and induced with butyrate as mentioned above. The cells were washed in prewarmed (37° C.) transport buffer (142 mM NaCl, 5 mM KCl, 1 mM KH2PO4, 1.2 mM MgSO4, 1.5 mM CaCl2, 5 mM glucose, and 12.5 mM HEPES, pH 7.3). The ^3H-labeled substrate was dissolved in transport buffer and added either to the apical or to the basolateral compartment at the concentration indicated. After incubation at 37° C., the radioactivity in the opposite compartment was measured by sampling aliquots from the apical or basolateral compartment. Cells were washed 2 times with ice-cold transport buffer containing 0.5% bovine serum albumin and 3 times in ice-cold transport buffer. Intracellular accumulation of radioactivity was calculated by lyzing the cells with 0.2% sodium dodecyl sulfate (SDS) and measuring the radioactivity in the lysate.

The next series deals with T3, OATP2B1 (Homo sapiens, UniProt O94956).
T3 sequence (O94956 1-709): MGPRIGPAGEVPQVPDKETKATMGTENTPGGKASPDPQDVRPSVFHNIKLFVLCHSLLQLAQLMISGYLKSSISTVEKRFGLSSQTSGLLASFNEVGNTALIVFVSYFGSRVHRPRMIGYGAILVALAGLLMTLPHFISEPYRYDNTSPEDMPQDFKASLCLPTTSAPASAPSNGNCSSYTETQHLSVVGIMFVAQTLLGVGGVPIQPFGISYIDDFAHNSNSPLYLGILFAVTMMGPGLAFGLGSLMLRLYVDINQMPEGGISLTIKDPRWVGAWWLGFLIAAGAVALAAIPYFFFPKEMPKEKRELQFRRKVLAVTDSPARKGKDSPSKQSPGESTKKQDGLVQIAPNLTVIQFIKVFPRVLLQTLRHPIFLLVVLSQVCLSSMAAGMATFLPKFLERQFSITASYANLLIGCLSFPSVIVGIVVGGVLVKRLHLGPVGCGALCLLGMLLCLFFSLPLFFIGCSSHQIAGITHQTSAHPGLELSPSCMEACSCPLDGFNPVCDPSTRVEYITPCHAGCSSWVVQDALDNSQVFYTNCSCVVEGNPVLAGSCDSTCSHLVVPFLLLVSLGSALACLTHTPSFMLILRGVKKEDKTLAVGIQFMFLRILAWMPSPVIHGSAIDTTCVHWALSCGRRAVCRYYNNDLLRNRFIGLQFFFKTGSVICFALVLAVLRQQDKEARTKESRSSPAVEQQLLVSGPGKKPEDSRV
Description: Uptake (intracellular accumulation) kinetics in ABCC2/OATP2B1 double-transfected MDCKII cells. The format is in vitro ADME. On the set-up: expressed in transfected cells; host or cells: MDCKII (canine kidney) ABCC2 single-transfectant, further transfected with pcDNA3.1/Hygro(-)-OATP2B1. As to conditions: human, MDCKII cells double-transfected with ABCC2 and OATP2B1, pH 7.3; cell line ABCC2-OATP2B1; intracellular accumulation of 3H-labeled substrate; 5-min uptake. As to the method:
as §1, with “The cells were washed in prewarmed (37° C.) transport buffer (142 mM NaCl, 5 mM KCl, 1 mM KH2PO4, 1.2 mM MgSO4, 1.5 mM CaCl2, 5 mM glucose, and 12.5 mM HEPES, pH 7.3).” left out

For series [2], the system named is OATP1B1, OATP1B3, and OATP2B1. Description: Uptake (intracellular accumulation) kinetics in ABCC2/OATP1B1/1B3/2B1 quadruple-transfected MDCKII cells. The format is in vitro ADME, human. Conditions: human, pH 7.3, cell line ABCC2-OATP1B1/1B3/2B1 (quadruple-transfectant); intracellular accumulation of 3H-labeled substrate; read-out: Km. Here is the method:
as §1

The test system of series [3] is ABCC2 together with OATP1B1, OATP1B3, and OATP2B1. Description: Transport studies (transcellular transport, intracellular accumulation) in all double- and quadruple-transfected MDCKII cells. It counts as in vitro ADME, human. Conditions: all 3 double-transfected and quadruple-transfected MDCKII cells, 5 μM BSP 15 min, 1 μM E3S, 0.5 μM Fluva in basolateral compartment. As to the method: as §1
(b) Transport assays were further carried out as described in Cui et al., Mol. Pharmacol. 60 (2001), 934-43. The apical localization of MRP2 and the basolateral expression of OATP1B1, OATP1B3 and OATP2B1 in the quadruple transfectants was shown by the generation of polar proliferation of the cells after initial growing on Transwell membrane inserts (24 mm diameter, […] pore size, Corning Costar) and by use of confocal laser scanning microscopy. […]

Series [4] addresses T1, ABCC2. More on the design: expressed in transfected cells; host or cells: MDCKII-ABCC2 single-transfected cells (membrane vesicles). As to conditions: BSP: Cui et al., 2001; CCK-8: Letschert et al., 2005; cited from earlier work.
Substrate in series [5]: CC(C)n1c(/C=C/C(O)CC(O)CC(=O)O)c(-c2ccc(F)cc2)c2ccccc21
Description: cells, lysate or membranes named. As to conditions: intracellular accumulation of 3H-labeled substrate, 5-min uptake, pH 7.3, 37.0 °C.

Substrate in series [6]: O=C1OC(c2ccc(O)c(S(=O)(=O)O)c2)(c2ccc(O)c(S(=O)(=O)O)c2)c2c(Br)c(Br)c(Br)c(Br)c21
Put plainly: Uptake (intracellular accumulation) kinetics in ABCC2/OATP1B1 double-transfected MDCKII cells. The format is in vitro ADME, human. As to conditions: other: cell line ABCC2-OATP1B1; intracellular accumulation of 3H-labeled substrate; 5-min uptake; pH 7.3; 37.0 °C.

Substrate in series [7]: O=C1OC(c2ccc(O)c(S(=O)(=O)O)c2)(c2ccc(O)c(S(=O)(=O)O)c2)c2c(Br)c(Br)c(Br)c(Br)c21
Description: Uptake (intracellular accumulation) kinetics in ABCC2/OATP2B1 double-transfected MDCKII cells. Conditions: other: cell line ABCC2-OATP2B1; intracellular accumulation of 3H-labeled substrate; 5-min uptake; pH 7.3; 37.0 °C. The format is in vitro ADME, human.

T1 sequence (Q92887 whole entry): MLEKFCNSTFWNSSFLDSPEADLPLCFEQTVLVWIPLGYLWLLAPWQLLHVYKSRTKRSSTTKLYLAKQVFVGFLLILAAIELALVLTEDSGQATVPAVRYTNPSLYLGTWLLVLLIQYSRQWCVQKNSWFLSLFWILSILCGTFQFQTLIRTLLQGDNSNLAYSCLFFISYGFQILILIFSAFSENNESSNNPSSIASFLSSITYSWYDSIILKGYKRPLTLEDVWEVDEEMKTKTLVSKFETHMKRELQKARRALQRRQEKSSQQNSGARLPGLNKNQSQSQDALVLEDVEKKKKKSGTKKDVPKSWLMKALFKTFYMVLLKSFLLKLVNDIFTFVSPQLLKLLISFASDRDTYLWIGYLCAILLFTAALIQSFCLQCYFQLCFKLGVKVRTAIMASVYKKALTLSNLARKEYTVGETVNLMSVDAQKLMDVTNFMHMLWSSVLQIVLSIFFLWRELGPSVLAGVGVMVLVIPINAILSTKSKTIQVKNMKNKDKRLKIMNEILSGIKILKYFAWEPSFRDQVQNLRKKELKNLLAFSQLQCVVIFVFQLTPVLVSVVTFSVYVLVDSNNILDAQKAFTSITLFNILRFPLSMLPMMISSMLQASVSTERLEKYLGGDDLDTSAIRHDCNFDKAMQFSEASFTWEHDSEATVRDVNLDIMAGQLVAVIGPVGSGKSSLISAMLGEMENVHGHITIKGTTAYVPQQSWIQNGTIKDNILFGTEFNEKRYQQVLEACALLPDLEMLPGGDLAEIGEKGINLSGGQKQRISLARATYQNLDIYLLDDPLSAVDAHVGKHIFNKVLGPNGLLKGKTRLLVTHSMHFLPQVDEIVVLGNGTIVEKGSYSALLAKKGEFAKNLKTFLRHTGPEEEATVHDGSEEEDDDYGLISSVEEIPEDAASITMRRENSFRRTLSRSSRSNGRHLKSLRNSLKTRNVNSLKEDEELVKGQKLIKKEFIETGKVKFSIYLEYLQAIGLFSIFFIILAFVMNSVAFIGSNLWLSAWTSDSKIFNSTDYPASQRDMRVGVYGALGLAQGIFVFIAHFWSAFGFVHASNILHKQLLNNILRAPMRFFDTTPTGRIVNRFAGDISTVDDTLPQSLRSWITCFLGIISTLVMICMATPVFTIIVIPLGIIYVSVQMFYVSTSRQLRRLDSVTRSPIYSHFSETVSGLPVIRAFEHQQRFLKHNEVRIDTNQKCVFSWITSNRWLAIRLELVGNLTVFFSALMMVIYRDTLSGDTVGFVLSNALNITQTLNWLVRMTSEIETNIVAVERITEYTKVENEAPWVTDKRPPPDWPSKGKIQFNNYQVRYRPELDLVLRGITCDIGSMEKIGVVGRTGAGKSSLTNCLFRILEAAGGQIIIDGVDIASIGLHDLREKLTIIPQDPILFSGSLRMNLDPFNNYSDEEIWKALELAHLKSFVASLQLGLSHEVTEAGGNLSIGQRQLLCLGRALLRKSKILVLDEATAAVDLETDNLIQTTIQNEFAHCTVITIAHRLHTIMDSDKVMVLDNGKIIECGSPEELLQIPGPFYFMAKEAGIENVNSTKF

Turning to `CC(C)n1c(/C=C/C(O)CC(O)CC(=O)O)c(-c2ccc(F)cc2)c2ccccc21` (stereo not shown) [Fluvastatin, fluvastatin], the “substrate for ABCC2” value at ABCC2 [1] (human) is “not a substrate for ABCC2”. Further, the Vmax at OATP1B3 was 53.6 ± 11.0 pmol · mg protein^−1 · min^−1. For the same molecule, the Km at 5 min on OATP1B3 (human, MDCKII cells double-transfected with ABCC2 and OATP1B3, pH 7.3, 5-min uptake, read-out: Km) amounted to 7 ± 2.5 µM; on OATP2B1, 700 nM. The Michaelis-Menten constant (Km) in series [2] worked out at 2300 nM.

In the case of `C[C@]12CC[C@@H]3c4ccc(OS(=O)(=O)O)cc4CC[C@H]3[C@@H]1CCC2=O` [estrone 3-sulfate], at ABCC2 [1], the “ABCC2-mediated transport in the presence of ATP, enhanced compared to controls” value is reported as 3.1 fold. The “transcellular (vectorial) transport, basolateral to apical” value in series [3] is on record as “transported transcellularly”; in series [3] (listed as [^3H]estrone 3-sulfate), “detected”.

cholecystokinin-8 sulfate [CCK-8]: the Km on ABCC2 [4] is 8.1 µM.

B1: OATP1B1 (Homo sapiens) (protein)
chain: MDQNQHLNKTAEAQPSENKKTRYCNGLKMFLAALSLSFIAKTLGAIIMKSSIIHIERRFEISSSLVGFIDGSFEIGNLLVIVFVSYFGSKLHRPKLIGIGCFIMGIGGVLTALPHFFMGYYRYSKETNINSSENSTSTLSTCLINQILSLNRASPEIVGKGCLKESGSYMWIYVFMGNMLRGIGETPIVPLGLSYIDDFAKEGHSSLYLGILNAIAMIGPIIGFTLGSLFSKMYVDIGYVDLSTIRITPTDSRWVGAWWLNFLVSGLFSIISSIPFFFLPQTPNKPQKERKASLSLHVLETNDEKDQTANLTNQGKNITKNVTGFFQSFKSILTNPLYVMFVLLTLLQVSSYIGAFTYVFKYVEQQYGQPSSKANILLGVITIPIFASGMFLGGYIIKKFKLNTVGIAKFSCFTAVMSLSFYLLYFFILCENKSVAGLTMTYDGNNPVTSHRDVPLSYCNSDCNCDESQWEPVCGNNGITYISPCLAGCKSSSGNKKPIVFYNCSCLEVTGLQNRNYSAHLGECPRDDACTRKFYFFVAIQVLNLFFSALGGTSHVMLIVKIVQPELKSLALGFHSMVIRALGGILAPIYFGALIDTTCIKWSTNNCGTRGSCRTYNSTSFSRVYLGLSSMLRVSSLVLYIILIYAMKKKYQEKDINASENGSVMDEANLESLNKNKHFVPSAGADSETHC
notes: expressed in transfected cells; host or cells: MDCKII (canine kidney), co-expressing ABCC2
For B1, in [5] (other: cell line ABCC2-OATP1B1), the Km is 2.4 ± 0.9 µM and the Vmax is listed as 43.4 ± 6.7 pmol · mg protein^−1 · min^−1. Further, in series [6], the Km came out at 2.4 µM and the Vmax was 41.5 ± 5.2 pmol · mg protein^−1 · min^−1.

B2: OATP2B1 (Homo sapiens) (protein)
chain: T3 sequence (O94956 1-709)
notes: expressed in transfected cells; host or cells: MDCKII (canine kidney) ABCC2 single-transfectant, further transfected with pcDNA3.1/Hygro(-)-OATP2B1
Consider B2, for which the Km in series [7] was 3.4 µM. In [5] (other: cell line ABCC2-OATP2B1), the Michaelis-Menten constant (Km) worked out at 0.7 ± 0.3 µM and the Vmax is on record as 23.0 ± 2.6 pmol · mg protein^−1 · min^−1.

One may read the Km as the concentration of substrate that gives half-maximal velocity.
